Data set [1] has as its target Tyrosine-protein kinase TXK (Homo sapiens) (UniProt P42681). Kind of data set: Inhibition of Txk(h) at 10.0 µM in the Eurofins Kinase panel. The conditions noted are these: Compound concentration 10.0 uM.
The target in data set [2] is Cannabinoid receptor 2 (Homo sapiens) (UniProt P34972). The conditions noted are these: Compound concentration 10.0 uM.
Data set [3] addresses Tyrosine-protein kinase Fgr (Homo sapiens) (UniProt P09769). The data set is described as follows: Inhibition of Fgr(h) at 10.0 µM in the Eurofins Kinase panel. The conditions noted are these: Compound concentration 10.0 uM.
Data set [4] deals with B1 bradykinin receptor (Homo sapiens) (UniProt P46663). The conditions noted are these: Compound concentration 10.0 uM.
Data set [5] addresses Glycogen synthase kinase-3 alpha (Homo sapiens) (UniProt P49840). Kind of data set: Inhibition of GSK3alpha(h) at 10.0 µM in the Eurofins Kinase panel. The conditions noted are these: Compound concentration 10.0 uM.
Data set [6] addresses Tyrosine-protein kinase Fes/Fps (Homo sapiens) (UniProt P07332). The data set is described as follows: Inhibition of Fes(h) at 10.0 µM in the Eurofins Kinase panel. The conditions noted are these: Compound concentration 10.0 uM.
Data set [7] deals with Calcium/calmodulin-dependent protein kinase type 1B (Homo sapiens) (UniProt Q6P2M8). The data set is described as follows: Inhibition of CaMKIbeta(h) at 10.0 µM in the Eurofins Kinase panel. The conditions noted are these: Compound concentration 10.0 uM.
Calcium/calmodulin-dependent protein kinase type 1B (Homo sapiens), sequence (Q6P2M8 whole entry): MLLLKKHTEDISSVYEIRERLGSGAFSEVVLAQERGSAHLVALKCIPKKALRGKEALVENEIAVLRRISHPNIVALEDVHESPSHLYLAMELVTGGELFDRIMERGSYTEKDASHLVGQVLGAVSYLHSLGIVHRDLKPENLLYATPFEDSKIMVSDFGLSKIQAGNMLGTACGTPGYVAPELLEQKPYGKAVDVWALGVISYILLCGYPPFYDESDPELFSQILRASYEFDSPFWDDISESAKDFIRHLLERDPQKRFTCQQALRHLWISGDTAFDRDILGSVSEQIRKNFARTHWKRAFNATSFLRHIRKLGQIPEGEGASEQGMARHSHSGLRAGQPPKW
The next data set deals with MAO-A (Homo sapiens, UniProt P21397). Kind of data set: Inhibition of Monoamine Oxidase MAO-A at compound concentration of 10.0 uM in the Eurofins-Panlabs enzyme assay (Eurofins_assay_140010). On the set-up: substrate with concentration 50 uM Kynuramine, incubation time 60 min, incubation temperature 37 C. The conditions noted are these: human recombinant MAO-A expressed in insect Hi5 cells, probe Kynuramine, compound concentration 10 uM.

For data set [8], the target named is Tyrosine-protein kinase SYK (Homo sapiens) (UniProt P43405). The data set is described as follows: Inhibition of Syk(h) at 10.0 µM in the Eurofins Kinase panel. The conditions noted are these: Compound concentration 10.0 uM.
In data set [9] the target is C-C chemokine receptor type 5 (Homo sapiens) (UniProt P51681). The data set is described as follows: Inhibition of Chemokine CCR5 at 10 µM in the Eurofins-Panlabs radioligand binding assay (Eurofins_assay_217720). The conditions noted are these: Compound concentration 10.0 uM.
C-C chemokine receptor type 5 (Homo sapiens), sequence (P51681 whole entry, looked up): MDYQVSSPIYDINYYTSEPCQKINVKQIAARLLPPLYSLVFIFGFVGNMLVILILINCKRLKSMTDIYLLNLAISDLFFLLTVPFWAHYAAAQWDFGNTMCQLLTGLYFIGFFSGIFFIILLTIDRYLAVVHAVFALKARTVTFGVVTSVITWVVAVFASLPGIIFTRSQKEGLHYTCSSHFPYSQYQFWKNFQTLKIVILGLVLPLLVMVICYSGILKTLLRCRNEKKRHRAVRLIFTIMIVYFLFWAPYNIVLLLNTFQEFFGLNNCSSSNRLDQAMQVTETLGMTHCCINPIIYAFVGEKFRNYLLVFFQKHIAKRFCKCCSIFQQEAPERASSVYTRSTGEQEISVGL
In data set [10] the target is voltage-gated sodium channel, site 2 (Rattus norvegicus, UniProt F1LQQ7+O08562+O88420+O88457+P04774+P04775+P08104+P15389+P15390+Q62968). The data set is described as follows: Inhibition of Sodium Channel, Site 2 at 10 µM in the Eurofins-Panlabs radioligand binding assay (Eurofins_assay_279510). On the set-up: ligand concentration 5 nM, non-specific ligand with concentration 100 µM Veratridine, incubation time 60 min, incubation temperature 37 °C. The format is protein assay. The conditions noted are these: male, Wistar, rat whole brain (except cerebellum) membranes, probe [3H] Batrachotoxinin, compound concentration 10 uM.

The species named for another data set is Mus musculus. Kind of data set: Inhibition of Interleukin IL-1 at 10 µM in the Eurofins-Panlabs radioligand binding assay (Eurofins_assay_243520). On the set-up: ligand concentration 0.1 nM. The conditions noted are these: Compound concentration 10.0 uM.
Data set [11] addresses T1, Alpha-1D adrenergic receptor (Homo sapiens) (UniProt P25100).
T1 sequence (whole entry): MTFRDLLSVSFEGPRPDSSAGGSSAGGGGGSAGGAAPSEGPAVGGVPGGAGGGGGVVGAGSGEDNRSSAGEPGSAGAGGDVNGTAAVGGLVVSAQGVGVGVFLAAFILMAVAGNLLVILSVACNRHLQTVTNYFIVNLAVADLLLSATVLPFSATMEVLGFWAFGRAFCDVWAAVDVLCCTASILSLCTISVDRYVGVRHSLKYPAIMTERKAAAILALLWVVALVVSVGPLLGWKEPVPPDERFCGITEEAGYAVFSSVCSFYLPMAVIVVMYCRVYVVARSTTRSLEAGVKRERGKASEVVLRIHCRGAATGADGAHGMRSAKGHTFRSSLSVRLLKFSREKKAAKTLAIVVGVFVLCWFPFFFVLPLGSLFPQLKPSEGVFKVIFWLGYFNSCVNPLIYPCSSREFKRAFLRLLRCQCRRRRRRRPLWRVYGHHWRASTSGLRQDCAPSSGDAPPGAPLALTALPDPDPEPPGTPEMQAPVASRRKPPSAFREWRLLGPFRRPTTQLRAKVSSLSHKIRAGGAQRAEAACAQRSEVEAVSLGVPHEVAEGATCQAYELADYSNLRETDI
The data set is described as follows: Inhibition of Adrenergic alpha1D at 10 µM in the Eurofins-Panlabs radioligand binding assay (Eurofins_assay_203400). The conditions noted are these: Compound concentration 10.0 uM.

In data set [12] the target is Matrix metalloproteinase-9 (Homo sapiens) (UniProt P14780). The data set is described as follows: Inhibition of Peptidase, Matrix Metalloproteinase-9 (MMP-9) at 10 µM in the Eurofins-Panlabs enzyme assay (Eurofins_assay_114910). On the set-up: substrate with concentration. The conditions noted are these: Compound concentration 10.0 uM.
Matrix metalloproteinase-9 (Homo sapiens), sequence (P14780 whole entry): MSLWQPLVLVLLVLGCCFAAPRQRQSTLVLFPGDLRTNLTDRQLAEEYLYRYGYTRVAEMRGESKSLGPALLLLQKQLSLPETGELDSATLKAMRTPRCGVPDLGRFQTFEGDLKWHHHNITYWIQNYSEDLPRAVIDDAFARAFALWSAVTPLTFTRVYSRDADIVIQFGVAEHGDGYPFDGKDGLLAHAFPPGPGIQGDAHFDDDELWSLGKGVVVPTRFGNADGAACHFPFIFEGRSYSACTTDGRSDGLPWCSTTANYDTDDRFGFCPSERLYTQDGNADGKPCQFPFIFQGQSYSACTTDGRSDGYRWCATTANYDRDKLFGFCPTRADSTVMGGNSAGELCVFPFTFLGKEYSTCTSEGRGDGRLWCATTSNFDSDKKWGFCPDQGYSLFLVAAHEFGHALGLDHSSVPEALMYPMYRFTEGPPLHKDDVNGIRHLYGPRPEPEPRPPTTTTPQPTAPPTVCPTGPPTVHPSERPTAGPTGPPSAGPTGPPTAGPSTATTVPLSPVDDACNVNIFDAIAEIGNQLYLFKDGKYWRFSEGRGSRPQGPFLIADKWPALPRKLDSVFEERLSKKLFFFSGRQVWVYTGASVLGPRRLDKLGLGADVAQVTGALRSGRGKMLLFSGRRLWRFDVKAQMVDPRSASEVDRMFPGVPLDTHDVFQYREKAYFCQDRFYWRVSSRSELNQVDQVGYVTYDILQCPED
The target in data set [13] is Cannabinoid receptor 1 (Homo sapiens) (UniProt P21554). The conditions noted are these: Compound concentration 10.0 uM.
Cannabinoid receptor 1 (Homo sapiens), sequence (P21554 whole entry): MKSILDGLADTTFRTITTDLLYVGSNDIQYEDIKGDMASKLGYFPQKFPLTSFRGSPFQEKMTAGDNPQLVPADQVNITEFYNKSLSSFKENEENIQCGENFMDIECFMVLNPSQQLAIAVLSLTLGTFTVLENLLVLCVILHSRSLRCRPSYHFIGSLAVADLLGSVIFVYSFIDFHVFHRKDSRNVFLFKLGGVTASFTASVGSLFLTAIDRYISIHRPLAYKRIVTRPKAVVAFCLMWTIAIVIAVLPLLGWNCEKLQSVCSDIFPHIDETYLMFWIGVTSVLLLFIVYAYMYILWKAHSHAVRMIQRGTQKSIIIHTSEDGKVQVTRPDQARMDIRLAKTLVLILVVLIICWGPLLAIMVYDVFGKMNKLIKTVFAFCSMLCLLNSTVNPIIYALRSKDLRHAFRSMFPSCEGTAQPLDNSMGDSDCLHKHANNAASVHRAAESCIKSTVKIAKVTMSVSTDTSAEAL
The species entered for the next data set is Rattus norvegicus. Kind of data set: Inhibition of Imidazoline I2, Central at 10 µM in the Eurofins-Panlabs radioligand binding assay (Eurofins_assay_241000). On the set-up: ligand concentration 2 nM. The conditions noted are these: Compound concentration 10.0 uM.
Data set [14] has as its target cGMP-specific 3',5'-cyclic phosphodiesterase (Homo sapiens) (UniProt O76074). The conditions noted are these: Compound concentration 10.0 uM.
Data set [15] concerns the target T2, Muscarinic acetylcholine receptor M5 (Homo sapiens) (UniProt P08912).
T2 sequence (whole entry): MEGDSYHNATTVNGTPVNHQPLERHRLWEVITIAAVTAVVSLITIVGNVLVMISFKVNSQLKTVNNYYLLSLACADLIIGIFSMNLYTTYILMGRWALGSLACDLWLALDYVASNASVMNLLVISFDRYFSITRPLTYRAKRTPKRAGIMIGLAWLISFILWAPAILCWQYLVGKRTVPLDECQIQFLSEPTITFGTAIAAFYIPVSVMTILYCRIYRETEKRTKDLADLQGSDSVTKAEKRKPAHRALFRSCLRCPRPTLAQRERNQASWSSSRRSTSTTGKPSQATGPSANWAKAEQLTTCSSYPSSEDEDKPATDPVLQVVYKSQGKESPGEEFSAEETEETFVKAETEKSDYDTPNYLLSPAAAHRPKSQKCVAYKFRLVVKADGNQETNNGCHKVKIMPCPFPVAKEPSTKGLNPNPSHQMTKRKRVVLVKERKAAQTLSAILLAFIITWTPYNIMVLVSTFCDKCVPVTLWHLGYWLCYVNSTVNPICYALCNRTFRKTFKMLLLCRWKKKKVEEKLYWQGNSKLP
The data set is described as follows: Inhibition of Muscarinic M5 at 10 µM in the Eurofins-Panlabs radioligand binding assay (Eurofins_assay_253010). The conditions noted are these: Compound concentration 10.0 uM. On the set-up: ligand concentration 0.8 nM.

The target in another data set is Caspase-1 (Homo sapiens) (UniProt P29466). The data set is described as follows: Inhibition of Peptidase, CASP1 (Caspase 1) at 10 µM in the Eurofins-Panlabs enzyme assay (Eurofins_assay_163000). The conditions noted are these: Compound concentration 10.0 uM.
Caspase-1 (Homo sapiens), sequence (P29466 120-297 limits assumed): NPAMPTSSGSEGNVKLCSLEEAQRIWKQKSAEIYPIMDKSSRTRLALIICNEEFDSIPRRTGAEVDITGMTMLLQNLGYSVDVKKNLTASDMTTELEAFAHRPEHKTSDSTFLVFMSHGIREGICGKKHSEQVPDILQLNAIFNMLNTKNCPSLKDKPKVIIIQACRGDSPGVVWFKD
Caspase-1 (Homo sapiens), sequence (P29466 317-404 limits assumed): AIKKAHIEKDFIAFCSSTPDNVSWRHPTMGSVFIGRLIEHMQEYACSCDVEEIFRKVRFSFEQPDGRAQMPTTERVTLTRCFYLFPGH
In data set [16] the target is Dual specificity protein kinase CLK4 (Homo sapiens) (UniProt Q9HAZ1). The data set is described as follows: Inhibition of CLK4(h) at 10.0 µM in the Eurofins Kinase panel. The conditions noted are these: Compound concentration 10.0 uM.
Dual specificity protein kinase CLK4 (Homo sapiens), sequence (Q9HAZ1 whole entry, looked up): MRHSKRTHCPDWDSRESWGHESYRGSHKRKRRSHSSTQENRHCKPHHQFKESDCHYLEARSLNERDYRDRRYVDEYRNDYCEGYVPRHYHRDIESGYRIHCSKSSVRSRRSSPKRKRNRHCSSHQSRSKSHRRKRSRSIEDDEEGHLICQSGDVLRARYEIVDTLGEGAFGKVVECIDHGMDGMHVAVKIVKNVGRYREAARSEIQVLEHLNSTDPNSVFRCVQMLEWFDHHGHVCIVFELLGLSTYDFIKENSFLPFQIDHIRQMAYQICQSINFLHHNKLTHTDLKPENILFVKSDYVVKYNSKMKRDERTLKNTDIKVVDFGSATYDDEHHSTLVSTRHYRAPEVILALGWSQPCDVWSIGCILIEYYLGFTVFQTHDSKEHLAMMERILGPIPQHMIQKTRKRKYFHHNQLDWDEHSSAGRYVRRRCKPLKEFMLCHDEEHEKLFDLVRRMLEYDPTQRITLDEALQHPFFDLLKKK
Data set [17] has as its target ATP-sensitive inward rectifier potassium channel 11 (Cricetulus griseus) (UniProt A0A3L7HHE1). Kind of data set: Inhibition of Potassium Channel [KATP] at 10 µM in the Eurofins-Panlabs radioligand binding assay (Eurofins_assay_265600). The conditions noted are these: Cricetinae; Compound concentration 10.0 uM.
Data set [18] concerns the target Protein phosphatase 3 catalytic subunit alpha (Homo sapiens) (UniProt Q08209). Kind of data set: Inhibition of Protein Serine/threonine Phosphatase, PPP3CA (Calcineurin, PP2B) at […] µM in the Eurofins-Panlabs enzyme assay (Eurofins_assay_188020). On the set-up: substrate with concentration. The conditions noted are these: Compound concentration 11.0 uM.

We go through two compounds from ChEMBL document CHEMBL5463729, “Data for DCP probe BAY 1753011” (2023).

Glycogen synthase kinase-3 alpha (Homo sapiens), sequence (P49840 2-483 limits assumed): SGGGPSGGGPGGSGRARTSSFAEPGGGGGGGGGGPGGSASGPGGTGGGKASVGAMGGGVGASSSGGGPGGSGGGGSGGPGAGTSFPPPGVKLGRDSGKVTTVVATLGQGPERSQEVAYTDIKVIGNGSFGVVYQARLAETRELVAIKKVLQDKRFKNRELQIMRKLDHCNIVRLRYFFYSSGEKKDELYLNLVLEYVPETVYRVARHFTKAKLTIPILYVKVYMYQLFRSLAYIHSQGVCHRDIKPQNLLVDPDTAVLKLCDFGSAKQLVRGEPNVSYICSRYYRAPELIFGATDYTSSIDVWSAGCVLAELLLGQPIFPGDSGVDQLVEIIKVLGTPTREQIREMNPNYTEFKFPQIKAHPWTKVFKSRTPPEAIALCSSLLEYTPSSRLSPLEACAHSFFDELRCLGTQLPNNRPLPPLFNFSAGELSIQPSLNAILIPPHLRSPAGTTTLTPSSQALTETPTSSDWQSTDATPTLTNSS
Cannabinoid receptor 2 (Homo sapiens), sequence (P34972 whole entry): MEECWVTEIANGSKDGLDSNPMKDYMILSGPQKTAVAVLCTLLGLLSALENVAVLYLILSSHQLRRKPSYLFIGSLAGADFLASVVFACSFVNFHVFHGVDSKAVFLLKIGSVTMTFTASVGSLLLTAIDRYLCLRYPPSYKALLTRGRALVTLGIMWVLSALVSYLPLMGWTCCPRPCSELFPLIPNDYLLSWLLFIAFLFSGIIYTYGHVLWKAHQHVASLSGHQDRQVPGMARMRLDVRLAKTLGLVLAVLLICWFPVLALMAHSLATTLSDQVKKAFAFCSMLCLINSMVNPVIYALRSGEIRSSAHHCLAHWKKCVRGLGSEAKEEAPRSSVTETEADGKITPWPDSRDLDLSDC
ATP-sensitive inward rectifier potassium channel 11 (Cricetulus griseus), sequence (A0A3L7HHE1 as listed by the source): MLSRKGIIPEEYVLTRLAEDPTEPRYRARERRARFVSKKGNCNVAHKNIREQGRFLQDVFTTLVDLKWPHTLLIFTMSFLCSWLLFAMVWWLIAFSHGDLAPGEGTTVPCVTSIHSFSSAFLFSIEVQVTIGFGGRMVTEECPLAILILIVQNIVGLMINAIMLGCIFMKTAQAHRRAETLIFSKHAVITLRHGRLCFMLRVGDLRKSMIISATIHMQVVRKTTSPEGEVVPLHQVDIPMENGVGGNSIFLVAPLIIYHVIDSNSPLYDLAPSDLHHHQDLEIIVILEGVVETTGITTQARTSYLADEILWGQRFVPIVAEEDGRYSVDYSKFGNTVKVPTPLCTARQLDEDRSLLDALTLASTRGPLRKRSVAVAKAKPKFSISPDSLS
Tyrosine-protein kinase Fes/Fps (Homo sapiens), sequence (P07332 whole entry): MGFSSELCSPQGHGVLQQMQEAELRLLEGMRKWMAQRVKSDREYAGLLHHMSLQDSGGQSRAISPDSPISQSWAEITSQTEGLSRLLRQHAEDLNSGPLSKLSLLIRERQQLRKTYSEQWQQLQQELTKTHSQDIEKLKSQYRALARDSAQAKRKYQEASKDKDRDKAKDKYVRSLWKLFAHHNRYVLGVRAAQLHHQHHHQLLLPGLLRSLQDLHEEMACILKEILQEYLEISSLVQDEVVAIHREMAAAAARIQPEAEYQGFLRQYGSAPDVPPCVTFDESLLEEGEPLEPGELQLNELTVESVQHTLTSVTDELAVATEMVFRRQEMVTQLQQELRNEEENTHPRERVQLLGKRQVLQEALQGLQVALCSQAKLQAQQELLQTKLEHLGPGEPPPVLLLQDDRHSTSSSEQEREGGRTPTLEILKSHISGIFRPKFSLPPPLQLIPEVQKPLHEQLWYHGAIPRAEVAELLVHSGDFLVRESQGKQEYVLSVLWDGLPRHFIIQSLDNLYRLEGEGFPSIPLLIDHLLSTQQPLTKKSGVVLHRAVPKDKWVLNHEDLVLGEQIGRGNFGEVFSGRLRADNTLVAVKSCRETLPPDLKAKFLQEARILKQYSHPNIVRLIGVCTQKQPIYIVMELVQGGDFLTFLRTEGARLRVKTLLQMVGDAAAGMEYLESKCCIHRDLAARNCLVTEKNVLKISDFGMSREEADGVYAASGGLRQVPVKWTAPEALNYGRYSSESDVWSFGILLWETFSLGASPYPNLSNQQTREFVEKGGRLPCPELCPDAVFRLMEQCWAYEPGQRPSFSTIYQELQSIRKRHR

`O=c1n(Cc2cncn2-c2cccc(Cl)c2)nc(-c2ccc(Cl)cc2)n1C[C@H](O)C(F)(F)F`: the inhibition is -5.05% in [1]; 14% in data set [2]; -7.12% in data set [3]; -3% in [4]; -1.7% in data set [5]; -7.81% in data set [6]. In addition, the inhibition in [7] was -8.98%.

As to `C[C@H](O)c1nc(Cn2nc(-c3ccc(Cl)cc3)n(C[C@H](O)C(F)(F)F)c2=O)nn1-c1cccc(Cl)c1` [PECAVAPTAN], the values for the inhibition at 60 min, 10 µM (at MAO-A; in data set [10]) were -3% (not active) and 42% (not active), respectively. In addition, the inhibition is -8.56% in [8]; -3% in data set [9]; 15% in the data set filed under Mus musculus; 1% in data set [11]; -2% in data set [12]; 34% in data set [13]. Further, the inhibition in the data set listed under Rattus norvegicus is 21%; in [14], -10%; in data set [15] it was 6%; at Caspase-1 (Homo sapiens) it was 0%; in data set [16], 1.42%; in data set [17], 18%. Further, in data set [18], the inhibition was 32%.
